From patent publication US20240254138A1, “TRICYCLIC PYRIMIDINES AS CYCLIN-DEPENDENT KINASE 7 (CDK7) INHIBITORS” (JANSSEN PHARMACEUTICA NV, priority 2021, published 2024)
Read-outs that look alike come from different tables or passages of the source.

What was measured:
[1] = biological target: CDK7/cyclinH/MAT1 trimeric complex (Homo sapiens, UniProt P50613); experiment: In vitro CDK7 assay, potency of irreversible covalent inhibitors (kinact/KI), coupled PK/LDH ADP readout at 340 nm; settings: for Ki: CDK7 (20 nM enz.) (KI, μM); for kinact: read-out: CDK7 (20 nM enz.) (kinact, s^−1), 20 nM enzyme; for CDK7 (kinact/KI, M^−1*s^−1): potency of irreversible covalent inhibitors, 1 mM ATP, room temperature, averaged values over all measurements
[2] = tested on: RNA Polymerase II Serine 5 phosphorylation in A549 cells overexpressing CDK7-mutant (C312S); experiment: Imaging-based cellular RNA PolII Ser5 phosphorylation assay in A549 cells overexpressing CDK7-mutant (C312S); format: cell-based, human; settings: RNA PolII Ser5 phosphorylation, averaged over all measurements; for IC50: Homo sapiens, A549, A549 cells overexpressing CDK7-mutant (C312S), read-out: CDK7_A549 mutant hCDK7(pIC50) (converted); for CDK7_A549 mutant hCDK7(pIC50): A549 cells overexpressing CDK7-mutant (C312S)
Outline: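 Readout was automated imaging of anti-phospho-Ser5 Rpb1 CTD immunofluorescence, with IC50 fitted to % control versus concentration. Cells were A549 stably overexpressing non-covalently targetable CDK7 C312S alongside wild-type, exposed to compound 3 h at 37 °C. DMSO and 10 μM reference compound served as controls.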

[3] = tested on: RNA Polymerase II Serine 5 phosphorylation (Rpb1 CTD, downstream substrate of CDK7) in A549 cells; experiment: Imaging-based cellular RNA PolII Ser5 phosphorylation assay in A549 cells; format: cell-based, human; settings: wild-type CDK7, RNA PolII Ser5 phosphorylation, averaged over all measurements; for IC50: Homo sapiens, A549, A549 cells, read-out: CDK7_A549 Wild-type CDK7 (pIC50) (converted); for CDK7_A549 Wild-type CDK7 (pIC50): A549 cells
Outline: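 IC50 derived by fitting % control (DMSO high, 10 μM reference low) against concentration, with Hill slope. Readout: high-content imaging of phospho-Ser5 Rpb1 CTD antibody staining in fixed, permeabilized A549 cells exposed to compound 3 h after 20 h culture in 1% FBS DMEM.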

[4] = read-out: CDK7 (20 nM enz.) (kinact/KI, M^−1*s^−1), 20 nM enzyme
[5] = read-out: CDK7 (20 nM enz.) (kobs/[I], M^−1*s^−1), 20 nM enzyme

Sequence of CDK7/cyclinH/MAT1 trimeric complex (P50613 whole entry): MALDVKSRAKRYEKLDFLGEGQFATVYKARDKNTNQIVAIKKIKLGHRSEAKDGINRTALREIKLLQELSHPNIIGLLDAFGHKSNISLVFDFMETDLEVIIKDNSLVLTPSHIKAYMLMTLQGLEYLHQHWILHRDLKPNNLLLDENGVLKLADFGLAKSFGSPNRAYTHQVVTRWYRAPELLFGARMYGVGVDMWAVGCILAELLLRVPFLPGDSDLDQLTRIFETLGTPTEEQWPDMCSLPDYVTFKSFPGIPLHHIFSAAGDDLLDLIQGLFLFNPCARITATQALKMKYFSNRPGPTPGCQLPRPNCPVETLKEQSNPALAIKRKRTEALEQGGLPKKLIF
Sequence of CDK7/cyclinH/MAT1 trimeric complex (P51946 whole entry partner): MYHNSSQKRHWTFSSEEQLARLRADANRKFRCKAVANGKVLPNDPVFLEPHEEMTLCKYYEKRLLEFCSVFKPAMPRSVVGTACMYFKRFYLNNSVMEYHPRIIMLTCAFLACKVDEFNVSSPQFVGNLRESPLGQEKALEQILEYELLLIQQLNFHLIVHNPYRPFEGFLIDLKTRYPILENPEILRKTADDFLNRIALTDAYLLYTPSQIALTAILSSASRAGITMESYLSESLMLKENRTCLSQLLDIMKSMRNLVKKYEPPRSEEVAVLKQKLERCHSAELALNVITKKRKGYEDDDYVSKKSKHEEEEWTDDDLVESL
Sequence of CDK7/cyclinH/MAT1 trimeric complex (P51948 whole entry partner): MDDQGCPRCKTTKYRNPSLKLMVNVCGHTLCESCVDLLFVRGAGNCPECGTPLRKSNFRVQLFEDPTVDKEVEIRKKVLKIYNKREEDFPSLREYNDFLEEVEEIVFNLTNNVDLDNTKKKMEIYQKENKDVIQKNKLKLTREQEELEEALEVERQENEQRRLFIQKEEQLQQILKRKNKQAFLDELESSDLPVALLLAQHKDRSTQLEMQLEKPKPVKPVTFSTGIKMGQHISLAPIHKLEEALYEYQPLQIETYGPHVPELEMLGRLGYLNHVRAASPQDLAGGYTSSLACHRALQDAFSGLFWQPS

SMILES | Ki ([1]; 20 nM enzyme) [µM] | kinact [1] [s⁻¹] | kinact/KI [1, 4] [M⁻¹ s⁻¹] | melting point [°C] | IC50 [2] [µM] | IC50 [3] [µM] | kinact/KI [1, 5] [M⁻¹ s⁻¹] | CDK7 (20 nM enz.) (kinact, s^−1) ([1]; 20 nM enzyme) [s⁻¹] | CDK7 (20 nM enz.) (kinact/KI, M^−1*s^−1) ([1]; 20 nM enzyme) [M⁻¹ s⁻¹] | CDK7_A549 mutant hCDK7(pIC50) [2] | CDK7_A549 Wild-type CDK7 (pIC50) [3] | CDK7 (kinact/KI, M^−1*s^−1) [1] [M⁻¹ s⁻¹]
C=CC(=O)N1CC(N2CCC(c3ccc4c(c3)Nc3nccc(-c5cnn(C)c5)c3[C@H](C)O4)CC2)C1 (single isomer, unassigned) [Compound 128] | 10.2 | 0.000115 | 11.3 | 223.3 | > 10 | 4.47 |  |  |  |  |  | 
C=CC(=O)N1CC(N2CC[C@H](c3cc4c(c(C)n3)O[C@@H](C)c3c(N5CCOCC5)ccnc3N4)C2)C1 (single isomer, unassigned) [Compound 218] |  |  | 0.84 | > 300 | > 10 | 8.51 |  |  |  |  |  | 
C=CC(=O)N1CC(N2CCC(c3cc4c(c(C)n3)O[C@@H](C)c3c(N5CCOCC5)ccnc3N4)CC2)C1 (single isomer, unassigned) [Compound 265] |  |  |  | 288.5 | > 10 | 2.09 |  |  |  |  |  | 
CC#CC(=O)N1CCN(C2CN(c3cc4c(c(C)n3)OCc3c(N5CCOCC5)ccnc3N4)C2)CC1 [Compound 394] | 0.313 | 1.25e-05 | 39.9 |  | > 10 | 0.339 |  |  |  |  |  | 
CC#CC(=O)N1CCN(C2CCN(c3cc4c(c(C)n3)OCc3c(N5CCOCC5)ccnc3N4)CC2)CC1 [Compound 396] | 0.0643 | 5.18e-05 | 807 |  | > 10 | 0.0933 |  |  |  |  |  | 
CC#CC(=O)N1CCC(n2cc(-c3cc4c(c(C)n3)OCc3c(N5CCOCC5)ccnc3N4)cn2)CC1 [Compound 399] | 0.0839 | 6.61e-06 | 78.8 |  | > 10 | 0.447 |  |  |  |  |  | 
CC#CC(=O)N1CC(N2CCC(c3cc4c(c(C5CC5)n3)OCc3c(C5CCOCC5)ccnc3N4)CC2)C1 [Compound 400] | 0.0914 | 5.02e-05 | 549 |  | > 10 | 0.105 |  |  |  |  |  | 
CC#CC(=O)N1CC(N2CCC(c3cc4c(c(C)n3)OCc3c(C5CCOCC5)ccnc3N4)CC2)C1 [Compound 410] | 0.203 | 6.11e-05 | 300 |  | > 10 | 0.174 |  |  |  |  |  | 
CC#CC(=O)N1CCC(n2ccc(-c3cc4c(c(C)n3)OCc3c(N5CCOCC5)ccnc3N4)cc2=O)CC1 [Compound 414] | 0.0611 | 4.36e-05 | 714 |  | > 10 | 0.251 |  |  |  |  |  | 
CC#CC(=O)N1CC(n2cc(-c3cc(C#N)c4c(c3)Nc3nccc(N5CCOCC5)c3C(C)O4)cn2)C1 (stereo not drawn) [Compound 417] | 0.0223 | 1.51e-05 | 678 |  | 2.95 | 0.0589 |  |  |  |  |  | 
COC(=O)/C=C/C(=O)N1CC(N2CCC(c3cc4c(c(C)n3)OCc3c(-c5cnn(C)c5)ccnc3N4)CC2)C1 [Compound 431] |  |  |  |  | > 10 | 0.055 | 1170 |  |  |  |  | 
CCOC(=O)/C=C/C(=O)N1CC(N2CCC(c3cc4c(c(C)n3)OCc3c(-c5cnn(C)c5)ccnc3N4)CC2)C1 [Compound 435] |  |  |  |  | > 10 | 0.0692 | 856 |  |  |  |  | 
Cc1nc(C2CCN(C3CN(C(=O)/C=C/C(=O)OC(C)C)C3)CC2)cc2c1OCc1c(-c3cnn(C)c3)ccnc1N2 [Compound 436] | 0.311 | 4.3e-05 | 138 |  | > 10 | 0.575 |  |  |  |  |  | 
C=CC(=O)N1CCC(C2CN(c3cc4c(c(C)n3)OCc3c(N5CCOCC5)ccnc3N4)C2)CC1 [Compound 439] | 0.401 | 1.01e-05 | 25.2 |  | > 10 | 1.1 |  |  |  |  |  | 
C=CC(=O)N1CCC(N2CC(c3cc4c(c(C(F)(F)F)n3)OCc3c(N5CCOCC5)ccnc3N4)C2)CC1 [Compound 453] | 0.0717 |  |  |  |  |  |  | 3.153e-05 | 439.69 | 5.54 | 7.13 | 
C=CC(=O)N1CCC(N2CCC(c3cc4c(c(C)n3)OCc3c(N5CCOCC5)ccnc3N4)CC2=O)CC1 (stereo not drawn) [Compound 476] | 0.236 | 2.18e-05 | 92.5 |  | > 10 | 0.55 |  |  |  |  |  | 

The remaining lines, values ahead:

Ki ([1]; 20 nM enzyme) [µM] | kinact [1] [s⁻¹] | kinact/KI [1, 4] [M⁻¹ s⁻¹] | melting point [°C] | IC50 [2] [µM] | IC50 [3] [µM] | kinact/KI [1, 5] [M⁻¹ s⁻¹] | CDK7 (20 nM enz.) (kinact, s^−1) ([1]; 20 nM enzyme) [s⁻¹] | CDK7 (20 nM enz.) (kinact/KI, M^−1*s^−1) ([1]; 20 nM enzyme) [M⁻¹ s⁻¹] | CDK7_A549 mutant hCDK7(pIC50) [2] | CDK7_A549 Wild-type CDK7 (pIC50) [3] | CDK7 (kinact/KI, M^−1*s^−1) [1] [M⁻¹ s⁻¹] | SMILES
 |  | 289 |  | > 10 | 0.141 |  |  |  |  |  |  | CC#CC(=O)N1CCC(N2CCC(c3cc4c(c(C)n3)OCc3c(N5CCOCC5)ccnc3N4)CC2=O)CC1 (stereo not drawn) [Compound 484]
 |  | 473 |  | 3.31 | 0.0741 |  |  |  |  |  |  | CC#CC(=O)N1CCC(N2CC(c3cc4c(c(C(F)(F)F)n3)OCc3c(N5CCOCC5)ccnc3N4)C2)CC1 [Compound 490]
 |  |  |  | 7.24 | 0.0141 | 680 |  |  |  |  |  | C=C(C(=O)N1CC(N2CCC(c3cc4c(c(C)n3)OCc3c(N5CCOCC5)ccnc3N4)CC2)C1)n1cccn1 [Compound 496]
0.0408 | 1.66e-05 | 409 |  | > 10 | 1.74 |  |  |  |  |  |  | CC#CC(=O)N1CCC(N2CC(c3cc4c(c(C#N)n3)OCc3c(-c5cnn(C)c5)ccnc3N4)C2)C1 (stereo not drawn) [Compound 529]
0.0823 | 1.52e-05 | 184 |  | 10.2 | 0.427 |  |  |  |  |  |  | Cc1nc(C2CN(C3CCN(C(=O)/C=C/CN(C)C)CC3)C2)cc2c1OCc1c(-c3cnn(C)c3)ccnc1N2 [Compound 532]
6.8 |  |  |  | > 10 | > 10 |  |  |  |  |  |  | C=C(C)C(=O)N1CC(N2CCC(c3cc4c(c(C)n3)OCc3c(-c5cnn(C)c5)ccnc3N4)CC2)C1 [Compound 536]
0.0196 |  |  |  | > 10 | 1.32 |  |  |  |  |  |  | C=C(F)C(=O)N1CC(N2CCC(c3cc4c(c(C)n3)OCc3c(-c5cnn(C)c5)ccnc3N4)CC2)C1 [Compound 539]
0.0301 | 7.15e-05 | 2310 |  | > 10 | 0.55 |  |  |  |  |  |  | Cc1nc(C2CCN(C3CN(C(=O)/C=C/CN(C)C)C3)CC2)cc2c1OCc1c(-c3cnn(C)c3)ccnc1N2 [Compound 540]
 |  |  |  |  |  |  |  |  | <5 | 6.84 | 1065.34 | C=CC(=O)N1CC(N2CCC(c3ccc4c(c3)Nc3nccc(N5CCOCC5)c3CO4)CC2)C1 [compound 7]
0.13 | 7.07e-05 | 545 |  |  |  |  |  |  | <5 | 6.4 | 710 | C=CC(=O)N1CC(N2CCC(c3ccc4c(c3)Nc3nccc(N5CCS(=O)(=O)CC5)c3CO4)CC2)C1 [compound 14]
 |  |  |  |  |  |  |  |  | <5 | 7.26 | 320.6 | C=CC(=O)N1CC(N2CCC(c3ccc4c(c3)Nc3nccc(C5CCOCC5)c3CO4)CC2)C1 [compound 15]
 |  |  |  |  |  | 1030 |  |  | <5 | 6.81 | 2083.98 | C=CC(=O)N1CC(N2CCC(c3ccc4c(c3)Nc3nccc(C5CCOCC5)c3CO4)CC2)C1 [compound 34]
